The target in experiment [1] is T1, K2P2.1 (TREK-1) (Mus musculus, UniProt P97438).
T1 construct: expressed in transfected cells; host or cells: Xenopus oocytes (cRNA injection, pGEMHE/pMO)
T1 sequence (P97438 1-411 isoform P97438-2): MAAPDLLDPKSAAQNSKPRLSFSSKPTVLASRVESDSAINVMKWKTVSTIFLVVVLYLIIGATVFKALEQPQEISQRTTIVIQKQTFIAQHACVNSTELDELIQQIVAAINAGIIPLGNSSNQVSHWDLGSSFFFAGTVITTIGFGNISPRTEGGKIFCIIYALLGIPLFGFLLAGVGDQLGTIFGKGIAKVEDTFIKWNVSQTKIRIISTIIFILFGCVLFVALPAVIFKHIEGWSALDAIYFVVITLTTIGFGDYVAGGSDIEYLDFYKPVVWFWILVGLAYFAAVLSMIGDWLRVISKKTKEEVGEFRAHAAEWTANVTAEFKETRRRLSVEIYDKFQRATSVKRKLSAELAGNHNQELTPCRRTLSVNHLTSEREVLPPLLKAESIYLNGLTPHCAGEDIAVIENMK
Kind of experiment: Excised membrane patches (outside-out, inside-out) from HEK-293T cells expressing K2P2.1 (TREK-1). Type of experiment: cell-based, Murine. Here is the method:
FIG. 5 ML67-33 activates K2P2.1 (TREK-1) in excised membrane patches a, and b, exemplar I-V curves showing the effect of ML67-33 on K2P2.1 (TREK-1) in a, outside-out and b, inside-out excised patches from HEK-293T cells; currents were elicited by a voltage ramp from −100 to 50 mV from a holding potential of −40 mV. c, Exemplar channel responses to ML67-33 measured at 0 mV in the indicated configurations. Grey region indicates presence of 20 μM ML67-33. d, Times of half-maximal activation following ML67-33 application and recovery from activation (wash) following ML67-33 removal, measured in HEK-293T cells at 0 mV. Error bars: mean±s.e. n≧6, N≧2. ‘**’ indicates p≦0.01 and ‘N.S.’ indicates not significant (p≧0.05) as determined by t-test analysis.
(§1) Two-electrode voltage clamp recordings were performed from defolliculated stage V-VI Xenopus oocytes 24-48 hours after injection with 0.015-6.0 ng cRNA, using microelectrodes (0.3-3.0 MΩ) filled with 3M KCl. Data was acquired using the GeneClamp 500B (MDS Analytical Technologies) amplifier controlled by the pClamp software (Molecular Devices), and digitized at 1 kHz using Digidata 1332A (MDS Analytical Technologies). Recording solutions (mM): 2K (96 NaCl, 2 KCl, 1.8 CaCl2, 2 MgCl2), 90K (90 KCl, 8 NaCl, 1.8 CaCl2, 2 MgCl2), were buffered 5 mM HEPES pH 7.4. For K2P recordings, currents we elicited by a 1 second long ramp from −150 to +50 mV from a holding potential of −80 mV (2K), or −100 to +50 mV from a holding potential of 0 mV (90K). For KCNQ2 recordings, currents were elicited by a step protocol from −120 to 60 mV, in 20 mV increments, from a holding potential of −80 mV. Patch-clamp recordings from HEK-293T cells were performed using microelectrodes (2-3 MΩ) filled with 1M KCl. Data was acquired using the Axopatch 200B amplifier controlled by pClamp software, and digitized at 1 kHz using Digidata 1332A. Recording solutions (mM): intracellular (145 KCl, 5 EGTA, 3 MgCl2,) extracellular (150 NaCl, 5 KCl, 3 MgCl2, 1 CaCl2) were buffered with 5 mM HEPES pH 7.2 and 7.4, respectively. Currents were elicited by a 1 second long ramp from −150 to +50 mV from a holding potential of −80 mV. Data were fitted with a modified Hill's equation: I=Imin+(Imax−Imin)/(1+10^((Log EC50−Log [C])*H)), where Imax and Imin are maximal and minimal current values, respectively, EC50 is a half-maximal effective concentration of the compound, and H is the Hill coefficient.
To understand the mechanism of action of ML67-33, we examined how it affected K2P2.1 (TREK-1) expressed in two widely-used experimental systems, Xenopus oocytes and mammalian cells. […] Further, the effects of ML-67-33 were fast, occurring within seconds (half-maximal activation time, 4.1±0.5 s, mean±s.e., n=7, N=2) and were reversible upon washout (FIG. 4d). […] The times of half-maximal activation and return to baseline following compound washout (t1/2act and t1/2wash, respectively) in the outside-out configuration were indistinguishable from the same parameters measured in the whole-cell configuration (t1/2act:t1/2wash, mean±s.e. 4.1±0.5 s:3.9±0.5 s and 4.6±0.9 s:3.1±0.7 s for whole-cell and outside-out, respectively, FIGS. 5c and d). In stark contrast, both t1/2 values slowed substantially when the compound was applied to the inside-out configuration.

Experiment [2] has as its target T2, K2P9.1 (TASK-3) (Mus musculus, UniProt Q3LS21).
T2 construct: expressed in transfected cells; host or cells: Xenopus oocytes
Kind of experiment: Two-electrode voltage clamp, Xenopus oocytes expressing K2P9.1 (TASK-3). Type of experiment: cell-based, Murine. On the procedure:
FIG. 7 ML67-33 is a selective activator of heat- and mechanosensitive K2P channels. a-f, Exemplar I-V curves showing the effect of ML67-33 on a, K2P10.1 (TREK-2), b, K2P4.1 (TRAAK), c, K2P3.1 (TASK-1), d, K2P9.1 (TASK-3), e, K2P5.1 (TASK-2), and f, K2P18.1 (TRESK) measured in Xenopus oocytes in 2 mM [K^+]o pH 7.4. Currents were elicited by a voltage ramp from −150 to 50 mV, from a holding potential of −80 mV. g, Quantification of the effect of ML67-33 on the indicated channels. Data (mean±s.e., n≧6, N≧2) was normalized to basal channel activity and fitted to the Hill equation. […] Error bars indicate s.e., n≧6, N≧2.
Murine K2P channels were cloned into pGEMHE/pMO {Bagriantsev, 2011}, IRES-GFP (Invitrogen), or pYES2-MET25 (high copy 2μ, URA3) {Minor, 1999} for expression in oocytes, HEK-293T cells, and yeast, respectively, using standard molecular biology procedures, and verified by DNA sequencing.
as §1, with “Recording solutions (mM): intracellular (145 KCl, 5 EGTA, 3 MgCl2,) extracellular (150 NaCl, 5 KCl, 3 MgCl2, 1 CaCl2) were buffered with 5 mM HEPES pH 7.2 and 7.4, respectively. Currents were elicited by a 1 second long ramp from −150 to +50 mV from a holding potential of −80 mV. Data were fitted with a modified Hill's equation: I=Imin+(Imax−Imin)/(1+10^((Log EC50−Log [C])*H)), where Imax and Imin are maximal and minimal current values, respectively, EC50 is a half-maximal effective concentration of the compound, and H is the Hill coefficient.” left out

T2 sequence (Q3LS21 whole entry): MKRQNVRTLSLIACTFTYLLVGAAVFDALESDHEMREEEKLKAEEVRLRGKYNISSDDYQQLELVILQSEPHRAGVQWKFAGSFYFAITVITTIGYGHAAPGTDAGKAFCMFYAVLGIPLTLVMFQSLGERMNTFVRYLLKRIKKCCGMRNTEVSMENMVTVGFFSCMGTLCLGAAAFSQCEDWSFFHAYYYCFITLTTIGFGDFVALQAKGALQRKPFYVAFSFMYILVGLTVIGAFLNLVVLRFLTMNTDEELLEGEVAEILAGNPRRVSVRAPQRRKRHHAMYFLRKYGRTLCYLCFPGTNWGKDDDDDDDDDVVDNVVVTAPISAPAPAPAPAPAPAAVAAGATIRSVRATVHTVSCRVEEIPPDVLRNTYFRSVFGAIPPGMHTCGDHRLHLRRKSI

Turning to `CC1(C)c2cc(Cl)ccc2N(CCc2nnn[nH]2)c2ccc(Cl)cc21` [ML67-33, 2,7-dichloro-9,9-dimethyl-10-[2-(1H-tetrazol-5-yl)ethyl]acridine], in experiment [1] (inside-out patch), the t1/2act came out at 10.8 ± 1.3 s and the t1/2wash amounted to 22.0 ± 5.1 s. Moreover, the “effect on K2P2.1 (TREK-1) in excised patches (in words)” value in experiment [1] (outside-out and inside-out configurations) is “activated”. In experiment [1] (outside-out patch), the t1/2act turned out to be 4.6 ± 0.9 s and the t1/2wash came out at 3.1 ± 0.7 s. Moreover, in experiment [2] (applied at 100 μM), the “functional effect (in words)” value is “little or no functional effects”. The “Emax at 100 μM” value in experiment [2] (at 100 μM (FIG. 7 legend)) worked out at 2.0±0.1. The “Emax (fold) at 150 μM” value in experiment [2] (at 150 μM) worked out at 2.1 ± 0.4 at 150 μM fold.

Values taken from patent US9862684B2, “Modulation of K2P channels” (The Regents of the University of California, priority 2013, dated 2018).
